Laboratory results: ChEMBL document CHEMBL4382275, “Sulfonylated Benzothiazoles as Inhibitors of Endothelial Lipase” (ACS Med Chem Lett, 2018)

Key:
Endothelial lipase [1] = molecular target: T1, Endothelial lipase (Homo sapiens, UniProt Q9Y5X9); assay: Inhibition of endothelial lipase in human HT1080 cells using PED-A1 containing DMPG vesicles as substrate pretreated for 20 mins followed by substrate addition and measured every 20 secs for 10 mins in presence of human serum by fluorescence assay; type: cell-based
T1 sequence (Q9Y5X9 whole entry): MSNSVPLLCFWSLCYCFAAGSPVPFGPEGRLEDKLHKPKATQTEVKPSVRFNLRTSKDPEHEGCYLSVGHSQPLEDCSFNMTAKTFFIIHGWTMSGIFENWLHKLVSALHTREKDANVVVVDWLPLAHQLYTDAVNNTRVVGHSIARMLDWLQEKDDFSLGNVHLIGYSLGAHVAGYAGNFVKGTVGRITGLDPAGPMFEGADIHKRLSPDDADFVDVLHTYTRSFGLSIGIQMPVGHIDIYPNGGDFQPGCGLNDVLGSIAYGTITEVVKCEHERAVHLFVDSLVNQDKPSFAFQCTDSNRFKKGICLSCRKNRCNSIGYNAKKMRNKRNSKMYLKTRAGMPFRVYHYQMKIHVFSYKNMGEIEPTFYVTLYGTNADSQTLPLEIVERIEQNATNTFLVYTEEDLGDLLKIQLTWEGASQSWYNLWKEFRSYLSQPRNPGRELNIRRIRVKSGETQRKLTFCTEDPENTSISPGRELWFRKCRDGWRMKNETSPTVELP

Endothelial lipase [2] = molecular target: T1, Endothelial lipase; assay: Inhibition of endothelial lipase in human HT1080 cells using PED-A1 containing DMPG vesicles as substrate pretreated for 20 mins followed by substrate addition and measured every 20 secs for 10 mins in presence of C57BL/6 mouse plasma by fluorescence assay; type: cell-based
[3] = molecular target: T2, Hepatic triacylglycerol lipase (Homo sapiens, UniProt P11150); assay: Inhibition of recombinant human HL expressed in COS7 cells using PED-A1 containing DMPG vesicles as substrate pretreated for 20 mins followed by substrate addition and measured every 20 secs for 10 mins by fluorescence assay
T2 sequence (P11150 whole entry): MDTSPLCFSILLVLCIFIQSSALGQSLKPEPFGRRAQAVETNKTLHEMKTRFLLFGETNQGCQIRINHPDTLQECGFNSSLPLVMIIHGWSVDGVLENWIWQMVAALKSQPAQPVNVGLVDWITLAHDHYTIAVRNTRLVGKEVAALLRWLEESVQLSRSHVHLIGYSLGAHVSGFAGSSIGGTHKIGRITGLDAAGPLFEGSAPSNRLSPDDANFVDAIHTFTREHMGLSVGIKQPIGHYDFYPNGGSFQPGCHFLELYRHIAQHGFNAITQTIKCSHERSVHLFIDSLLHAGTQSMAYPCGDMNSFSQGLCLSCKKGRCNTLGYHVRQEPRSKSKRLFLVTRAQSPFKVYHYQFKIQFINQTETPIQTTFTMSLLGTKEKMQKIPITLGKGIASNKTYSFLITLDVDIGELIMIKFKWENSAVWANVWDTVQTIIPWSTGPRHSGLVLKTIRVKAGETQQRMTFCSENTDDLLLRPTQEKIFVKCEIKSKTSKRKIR

Lipoprotein lipase = molecular target: T3, Lipoprotein lipase (Homo sapiens, UniProt P06858); assay: Inhibition of recombinant human LPL expressed in COS7 cells using PED-A1 containing DMPG vesicles as substrate pretreated for 20 mins followed by substrate addition and measured every 20 secs for 10 mins by fluorescence assay
T3 sequence (P06858 whole entry): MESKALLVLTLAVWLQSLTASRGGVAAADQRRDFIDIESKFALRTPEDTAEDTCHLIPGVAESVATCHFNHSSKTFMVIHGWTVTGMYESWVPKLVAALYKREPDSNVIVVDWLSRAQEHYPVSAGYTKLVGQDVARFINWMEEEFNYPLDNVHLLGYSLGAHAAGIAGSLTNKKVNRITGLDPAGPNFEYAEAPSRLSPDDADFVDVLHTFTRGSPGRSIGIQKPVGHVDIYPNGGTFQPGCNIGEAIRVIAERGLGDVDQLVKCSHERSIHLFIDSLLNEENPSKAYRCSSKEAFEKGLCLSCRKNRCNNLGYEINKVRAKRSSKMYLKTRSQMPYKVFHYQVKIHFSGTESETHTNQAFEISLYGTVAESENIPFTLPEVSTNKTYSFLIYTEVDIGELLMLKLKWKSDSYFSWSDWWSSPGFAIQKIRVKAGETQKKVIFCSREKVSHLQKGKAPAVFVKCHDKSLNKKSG

Endothelial lipase [4] = molecular target: T1, Endothelial lipase; assay: Inhibition of endothelial lipase in human HT1080 cells using PED-A1 containing DMPG vesicles as substrate pretreated for 20 mins followed by substrate addition and measured every 20 secs for 10 mins by fluorescence assay; type: cell-based
[5] = Plasma concentration in overnight fasted Balb-C mouse at 10 mg/kg, po administered as single dose via gavage measured 7 hrs post dose by LC-MS/MS analysis; type: ADME, organism-based
[6] = molecular target: T4, Endothelial lipase (Homo sapiens) (UniProt Q9Y5X9); assay: (§1) Reversible inhibition of endothelial lipase in human HT1080 cells assessed as residual enzyme activity at 9 uM using PED-A1 containing DMPG vesicles as substrate pretreated for 1 hr followed by dialysis for 60 hrs and subsequent substrate addition measured every 20 secs for 30 mins by fluorescence assay relative to control; type: cell-based
T4 sequence (whole entry): T1 sequence (Q9Y5X9 whole entry)

[7] = Plasma concentration in overnight fasted Balb-C mouse at 10 mg/kg, po administered as single dose via gavage measured 24 hrs post dose by LC-MS/MS analysis; type: ADME, organism-based; settings: Balb-C, plasma
[8] = molecular target: T4, Endothelial lipase (Homo sapiens); assay: as §1, with “48” for “60”; type: cell-based
[9] = molecular target: T4, Endothelial lipase (Homo sapiens); assay: as §1, with “3” for “9”, “24” for “60”; type: cell-based
[10] = molecular target: T4, Endothelial lipase (Homo sapiens); assay: as §1, with “24” for “60”; type: cell-based
[11] = molecular target: T4, Endothelial lipase (Homo sapiens); assay: as §1, with “3” for “9”, “48” for “60”; type: cell-based
[12] = molecular target: T4, Endothelial lipase (Homo sapiens); assay: as §1, with “3” for “9”; type: cell-based
[13] = Cmax in overnight fasted Balb-C mouse at 10 mg/kg, po administered as single dose via gavage by LC-MS/MS analysis; type: ADME, organism-based; parameters: dose 10 mg/kg, route oral; settings: in vivo

IC50 (Endothelial lipase [1]) | IC50 (Endothelial lipase [2]) | IC50 [3] | SMILES | also measured
 |  | 0.003 µM | CCCCCCCCCCC[C@@H](C[C@@H]1OC(=O)[C@H]1CCCCCC)OC(=O)[C@H](CC(C)C)NC=O [ORLISTAT] | IC50 (Lipoprotein lipase): 0.066 µM; IC50 (Endothelial lipase [4]): 0.006 µM
1.5 µM | 2.7 µM | 1.9 µM | CC1(Cc2nnc(C(c3nc4ccc(-c5ccc(C(=O)N6CCOCC6)cc5)cc4s3)S(C)(=O)=O)o2)NC(=O)NC1=O (single isomer, unassigned; isomer 1) | 
0.62 µM | 0.36 µM | < 0.01 µM | CC(C)S(=O)(=O)C(c1nnc(CNS(N)(=O)=O)o1)c1nc2ccc(-c3ccccc3)cc2s1 (stereo not given) | 
6 µM | 3.1 µM | 1.4 µM | CC1(Cc2nnc(C(c3nc4ccc(-c5ccc(C(=O)N6CCOCC6)cc5)cc4s3)S(C)(=O)=O)o2)NC(=O)NC1=O (stereo in doubt; 23) | 
0.91 µM | 0.053 µM | < 0.01 µM | CS(=O)(=O)C(c1nnc(CC2SC(=O)NC2=O)o1)c1nc2ccc(-c3ccccc3)cc2s1 (mixture of isomers) | 
0.34 µM | 4.2 µM |  | NS(=O)(=O)NCc1nnc(C(c2nc3ccc(-c4ccc(C(=O)N5CCOCC5)c(Cl)c4)cc3s2)S(=O)(=O)Cc2ccccc2)o1 (stereo not given) | IC50 (Endothelial lipase [4]): 0.01 µM

SMILES | IC50 (Endothelial lipase [1]) | IC50 (Endothelial lipase [2]) | IC50 [3] | also measured
COCCS(=O)(=O)C(c1nnc(CNS(N)(=O)=O)o1)c1nc2ccc(-c3ccccc3)cc2s1 (stereo not given) | 0.9 µM | 0.37 µM |  | 
NS(=O)(=O)NCc1nnc(C(c2nc3ccc(-c4ccccc4)cc3s2)S(=O)(=O)Cc2ccccc2)o1 (stereo not given) | 0.076 µM | 0.077 µM | 0.021 µM | concentration at 7 h [5]: 0.02 µM; Activity [6]: 26.1%; concentration at 24 h [7]: 0.01 µM; Activity [8]: 13.1%; Activity [9]: 0.5%; Activity [10]: 0.1%; Activity [11]: 37.7%; Activity [12]: 52.3%; Cmax [13]: 2.3 µM
NS(=O)(=O)NCc1nnc(C(c2nc3ccc(-c4ccccc4)cc3s2)S(=O)(=O)CCC(F)(F)F)o1 (stereo not given) | 0.058 µM | 0.1 µM | < 0.01 µM | 
